Results published in patent publication EP2943187B1, “USE OF GLYCYL GLUTAMINE AGAINST DEPRESSION” (Uludag Universitesi Teknoloji Transfer Ofisi Ticaret ve …, priority 2013, dated 2014).
Peptide text beside a SMILES is read from it.

How the values were obtained:
rodents = assay: Forced Swimming Test; type: in vivo, rats; settings: intracerebroventricular, 100 nmol/10 µl, n=12
From the text: It has been proven as a result of the tests performed on animals that Glycyl-glutamine is therapeutic on depression and anxiety disorders. These aforementioned studies have been performed by means of "the Forced Swimming Test" method, which is the most applied animal model, used in antidepressant treatment surveys. The forced swimming test had been developed by Porsolt et al., (1978) and it is the most applied animal model in depression surveys especially the antidepressant treatment surveys. […] After the same animal is placed in the same tank twenty-four hours after the first time, it is observed that the time passes until inactivity reduces. Inactivity is expressed as losing behaviors of trying to escape in other words "behavioral helplessness". The forced swimming test is a similar response to learned helplessness. The efforts spent for an escape comes to an end for the animal, which understands it is exposed to a stress it will not be able to escape. Thus, it can be understood by that test model whether the antidepressant medications, which are administered before the second administration, show antidepressant effects or not. In practice, the post-treatment behaviors of the animal change for reducing behavioral helplessness. The time passed until inactivity is extended by means of acute or short-term antidepressant treatments and total time of inactivity is decreased. […] Because, it is an easy to apply practice, this model is used extensively (Cryan et al., 2002).
In Figure 1, the effect of intracerebroventricular Gly-Gln injection on the first term of inactivity. When, Gly-Gln has been administered centrally, it has extended the time passed until first inactivity compared to the control animals. While, the time passed until first inactivity of the rodents which have been centrally administered saline (10 µl) has been 14,9 ± 2,8 seconds (n=14), the time passed until first inactivity of the rodent which have been applied Gly-Gln (100 nmol/10 µl) by that same way has been increased to 28,1 ± 6,1 seconds (n=12), (p<0,05).
In Figure 2, the effect of intracerebroventricular Gly-Gln injection on the total term of inactivity. When, Gly-Gln has been administered centrally, it has reduced the total time time of inactivity compared to the control animals. While, the total inactivity time of the rodents which have been centrally administered saline (10 µl) has been 229.4 ± 8.9 seconds (n=14), the time passed until first inactivity of the rodent which have been applied Gly-Gln (100 nmol/10 µl) by the same way has been increased to 172.5 ± 12.8 seconds (n=12), (p<0,001).
In Figure 3, the effect of intracerebroventricular Gly-Gln injection on the escalation and swimming times. […]

[1] = system: serotonin output at the nucleus accumbency section of the brain; assay: Brain micro-dialysis, serotonin output; type: in vivo, rats; settings: single intracerebroventricular 100 nmol dose, 2 hours of monitoring, versus saline; p<0.001
Description: The source of the antidepressant effects of Gly-Gln, which is mentioned in the figure descriptions above, have been analyzed and shown in Figures 4 and 5. In Figures 4 and 5; the effect of Gly-Gln on the serotonin output at the nucleus accumbency section of the brain upon intracerebroventricular Gly-Gln injection can be seen. […] An increase in serotonin outputs can be observed in all time intervals throughout 2 hours of monitoring period following the Gly-Gln injection; however, no serotonin output could be observed from the rodents in the control group who had been administered saline injections by the same way. Serotonin, which is structurally a monoamine neurotransmitter, is a hormone, which makes people feel happy, energetic and lively. When, the subject matter hormone serotonin is deficient in people, they feel depressive, tired and boring. […] Furthermore, the word "Saline" indicated in Figure 4 and 5 means salty water. It is used for comparing with the tested medication by administering on the control group.

Storage stability = type: physicochemical
Description: After, it is diluted by saline; it can be stored in a refrigerator at +4°C between 24-48 hours. It can be stored in room temperature for 10-12 hours.

GABA levels in the brain = GABA levels in the brain after administration (unpublished data); type: in vivo; settings: Gly-Gln administration; unpublished data from applicant's laboratory
From the text: This innovation is related with the use of glycyl-glutamine in the treatment and/or prophylaxis of depression disorder and/or anxiety, which meets all above-mentioned requirements, eliminates all disadvantages and provides some advantages. The purpose of the current invention is to use Glycyl-Glutamine (Gly-Gln) in the treatment and/or prophylaxis of depression and/or anxiety via its effects in the brain other than its metabolic products' (glycine and glutamine) separate effects. […] Glutamine exerts antidepressant effects by increasing gamma-aminobutyric acid (GABA) in the brain however Gly-Gln generates antidepressant effects by increasing serotonin levels in the brain.

Which results are given for `NCC(=O)N[C@@H](CCC(N)=O)C(=O)O` [Gly-Gln, glycyl-glutamine] (H-Gly-Gln-OH)?
time passed until first inactivity (rodents; saline control 14,9 ± 2,8 seconds (n=14), p<0,05): 28,1 ± 6,1 seconds; swimming time (rodents; saline control 26,7 ± 2,9 seconds (n=14), p>0.05): 36,8 ± 4,3 seconds; escalation time (rodents; saline control 43,9 ± 7,0 seconds (n=14)): 90,8 ± 11,4 seconds; total inactivity time (rodents; saline control 229.4 ± 8.9 seconds (n=14), p<0,001): 172.5 ± 12.8 s; serotonin output at the nucleus accumbency section of the brain [1]: extremely increased; storage time, diluted by saline (Storage stability; refrigerator at +4°C): 24 to 48 h; storage time, non-diluted form (Storage stability; refrigerator at -20°C): very long period of time; storage time, diluted by saline (Storage stability; room temperature): 10 to 12 h; GABA levels in the brain (GABA levels in the brain): decrease
